In general, IC50 refers to the concentration at which inhibition is half-maximal. A lower IC50 goes with inhibition by little substance. As usually defined, the EC50 is the concentration at which the effect is half-maximal. A low value points to a more potent agent.

One test has as its target T1, CDK9/Cyclin T1 (Homo sapiens, UniProt P50750).
T1 construct: purchased Carna Biosciences 04-110
Put plainly: CDK9 enzyme protocol (LANCE ULight TR-FRET kinase assay). It counts as biochemical. To be noted: 4 nM CDK9/Cyclin T1, 1000 μM ATP, 100 nM U-light MBP peptide, 30 minutes. As to the method: CDK9 enzyme activities were measured using LANCE ULight TR-FRET kinase assay reagents (PerkinElmer, Waltham, Mass.). Compounds were directly added in 100% DMSO to white low volume assay plates (Perkin Elmer Proxiplate 6008289) using a Labcyte Echo acoustic dispenser. Assay reagents in serine/threonine kinase assay buffer containing 20 mM HEPES, 10 mM MgCl2, 100 mM Na3VO4, and 0.0075% Triton X-100. were added for final reaction mixture concentrations of 1000 μM ATP, 100 nM U-light MBP peptide (Perkin Elmer TRF0109M) and reaction initiated with 4 nM CDK9/Cyclin T1 (Carna Biosciences 04-110). The kinase reaction was carried out for 30 minutes before addition of stopping buffer to a final of 20 mM EDTA and 0.5 nM of LANCE Ultra Europium anti-phospho-MBP antibody (PerkinElmer TRF0201M) in LANCE detection buffer (PerkinElmer CR97-100). The reaction was equilibrated for 1 hour and the signal read in the Perkin Elmer Envision in TR-FRET mode (excitation at 320 nm and emission at 615/665 nm).

A further test concerns H929 cells. Put plainly: Cell viability assay in H929 cells (Cell TiterGlo). It counts as cell-based. To be noted: Homo sapiens, NCI-H929, 24 hours at 37° C. The protocol: Cell viability assays were performed using A431 or H929 cells. A431 cells were seeded in 96-well plates at 10,000 cells/well, and after overnight incubation, treated with compounds at 2-times the final concentration to result in a dose response of 3-fold dilutions from 10 μM to 0.0005 μM (50 μL/well, 0.1% final DMSO concentration). H929 cells were seeded in 96-well plates at 10,000 cells/well and treated immediately with compounds as described above. After 24 hours at 37° C., cell viability was measured using Cell TiterGlo reagent (Promega) with a luminescence reader. Alternately, cell viability assays were performed in 384-well format. A431 cells were seeded in 384-well plates at 2500 cells/well and, after overnight incubation, treated with compounds in a dose response of 3-fold dilutions from 10 μM to 0.0005 μM (25 nL/well, 0.1% final DMSO concentration). For the H929 viability assay, 25 nL/well of the compounds was dispensed into 384-well plates in a dose response as described above and cells were immediately seeded in 384-well plates at 2500 cells/well. After 24 hours at 37° C., cell viability was measured using Cell TiterGlo reagent (Promega) with a luminescence reader.
(Cellular ATP, detected with luciferase, serves as a proxy for viable cell number.)

T1 sequence (P50750 whole entry): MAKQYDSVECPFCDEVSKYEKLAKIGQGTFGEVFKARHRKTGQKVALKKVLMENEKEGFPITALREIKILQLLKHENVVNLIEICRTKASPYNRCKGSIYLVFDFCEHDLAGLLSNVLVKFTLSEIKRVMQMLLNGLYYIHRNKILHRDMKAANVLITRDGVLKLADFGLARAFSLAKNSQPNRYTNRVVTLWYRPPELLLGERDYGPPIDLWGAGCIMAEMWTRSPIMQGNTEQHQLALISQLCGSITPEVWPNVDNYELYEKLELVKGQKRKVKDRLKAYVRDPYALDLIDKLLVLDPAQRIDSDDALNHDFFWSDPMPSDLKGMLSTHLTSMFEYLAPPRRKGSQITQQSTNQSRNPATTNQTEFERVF
T1 sequence (O60563 whole entry partner): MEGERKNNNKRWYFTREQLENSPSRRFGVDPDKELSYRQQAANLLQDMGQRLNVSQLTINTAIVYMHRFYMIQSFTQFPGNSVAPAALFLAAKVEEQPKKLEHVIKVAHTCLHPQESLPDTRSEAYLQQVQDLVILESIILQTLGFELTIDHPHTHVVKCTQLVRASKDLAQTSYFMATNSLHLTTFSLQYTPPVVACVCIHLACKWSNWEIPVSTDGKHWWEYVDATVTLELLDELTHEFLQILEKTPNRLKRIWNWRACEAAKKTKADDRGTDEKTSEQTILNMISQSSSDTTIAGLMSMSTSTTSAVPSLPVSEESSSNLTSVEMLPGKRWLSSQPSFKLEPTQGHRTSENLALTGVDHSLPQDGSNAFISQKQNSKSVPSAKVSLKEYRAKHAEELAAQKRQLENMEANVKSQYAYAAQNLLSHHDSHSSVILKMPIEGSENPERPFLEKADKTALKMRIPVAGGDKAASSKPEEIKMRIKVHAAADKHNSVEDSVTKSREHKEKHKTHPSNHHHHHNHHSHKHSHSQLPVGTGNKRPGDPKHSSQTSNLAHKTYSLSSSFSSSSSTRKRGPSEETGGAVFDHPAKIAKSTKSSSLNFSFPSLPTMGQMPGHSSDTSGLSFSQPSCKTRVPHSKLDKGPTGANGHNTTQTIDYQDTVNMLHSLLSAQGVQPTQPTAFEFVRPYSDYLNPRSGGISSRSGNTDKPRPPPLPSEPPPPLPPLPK

On CDK9/Cyclin T1, `COc1ccc(F)cc1-c1ncnc2[nH]c(C3=CCC(C(=O)O)CC3)cc12` (stereo not drawn) [Example 79, 4-[4-(5-fluoro-2-methoxyphenyl)-7H-pyrrolo[2,3-d]pyrimidin-6-yl]cyclohex-3-ene-1-carboxylic acid] yielded an IC50 of 290 nM. Also, a half-maximal effect with H929 cells (EC50) was put at 6700 nM.
The like results for `COC(=O)c1ccc(CN2CC=C(c3cc4c(-c5cc(F)ccc5OC)ncnc4[nH]3)CC2)cc1` [Example 71, methyl 4-({4-[4-(5-fluoro-2-methoxyphenyl)-7H-pyrrolo[2,3-d]pyrimidin-6-yl]-3,6-dihydropyridin-1(2H)-yl}methyl)benzoate] were, in that order, 110 nM and 780 nM.
At CDK9/Cyclin T1, `CS(=O)(=O)N1CC=C(c2cc3c(-c4cc(NCc5cccc(C#N)c5)ccc4F)ncnc3[nH]2)CC1` [Example 31, 3-{[(4-fluoro-3-{6-[1-(methylsulfonyl)-1,2,3,6-tetrahydropyridin-4-yl]-7H-pyrrolo[2,3-d]pyrimidin-4-yl}phenyl)amino]methyl}benzonitrile] showed an IC50 of 110 nM. The compound also gave an EC50 in the test on H929 cells of 160 nM.
The like results for `COc1ccc(F)cc1-c1ncnc2[nH]c(C3=CCN(S(=O)(=O)C4CCS(=O)(=O)C4)CC3)cc12` (stereo not drawn) [Example 38, 6-{1-[(1,1-dioxidotetrahydrothiophen-3-yl)sulfonyl]-1,2,3,6-tetrahydropyridin-4-yl}-4-(5-fluoro-2-methoxyphenyl)-7H-pyrrolo[2,3-d]pyrimidine] were, in that order, 43 nM and 376 nM.
The like results for `COc1ccc(F)cc1-c1ncnc2[nH]c(C3=CCN(Cc4cc(F)cc(F)c4)CC3)cc12` [Example 36, 6-[1-(3,5-difluorobenzyl)-1,2,3,6-tetrahydropyridin-4-yl]-4-(5-fluoro-2-methoxyphenyl)-7H-pyrrolo[2,3-d]pyrimidine] were, in that order, 170 nM and 1000 nM.
For the compound `CCOc1ccc(F)cc1-c1ncnc2[nH]c(C3=CCN(Cc4ccc(NC(C)=O)cc4)CC3)cc12` [Example 68, N-[4-({4-[4-(2-ethoxy-5-fluorophenyl)-7H-pyrrolo[2,3-d]pyrimidin-6-yl]-3,6-dihydropyridin-1(2H)-yl}methyl)phenyl]acetamide], the IC50 against CDK9/Cyclin T1 was determined as 200 nM. This compound also had an EC50 in the test on H929 cells of 420 nM.
The matching figures for `COc1ccc(F)cc1-c1ncnc2[nH]c(C3=CCN(Cc4ccc(C#N)cc4)CC3)cc12` [Example 22, 4-({4-[4-(5-fluoro-2-methoxyphenyl)-7H-pyrrolo[2,3-d]pyrimidin-6-yl]-3,6-dihydropyridin-1(2H)-yl}methyl)benzonitrile]: 240 nM and 1100 nM.
The matching figures for `COc1ccc(F)cc1-c1ncnc2[nH]c(C3=CCC(N[C@H](C(=O)O)C(C)(C)C)CC3)cc12` (stereo partly drawn) [Example 83, N-{4-[4-(5-fluoro-2-methoxyphenyl)-7H-pyrrolo[2,3-d]pyrimidin-6-yl]cyclohex-3-en-1-yl}-3-methyl-L-valine]: 320 nM and 520 nM.
The matching figures for `COc1ccc(F)cc1-c1ncnc2[nH]c(C3=CCN(C(=O)N(C)C)CC3)cc12` [Example 75, 4-[4-(5-fluoro-2-methoxyphenyl)-7H-pyrrolo[2,3-d]pyrimidin-6-yl]-N,N-dimethyl-3,6-dihydropyridine-1(2H)-carboxamide]: 16 nM and 600 nM.
On CDK9/Cyclin T1, `COCC(=O)N1CC=C(c2cc3c(-c4cc(F)ccc4OC)ncnc3[nH]2)CC1` [Example 18, 1-{4-[4-(5-fluoro-2-methoxyphenyl)-7H-pyrrolo[2,3-d]pyrimidin-6-yl]-3,6-dihydropyridin-1(2H)-yl}-2-methoxyethanone] returned a 50% inhibitory concentration (IC50) of 130 nM. This compound registered an EC50 in the test with H929 cells of 400 nM.
The like results for `COc1ccc(F)cc1-c1ncnc2[nH]c(C3=CCN(C(=O)[C@H]4CC[C@H](C(=O)O)CC4)CC3)cc12` [Example 74, trans-4-({4-[4-(5-fluoro-2-methoxyphenyl)-7H-pyrrolo[2,3-d]pyrimidin-6-yl]-3,6-dihydropyridin-1(2H)-yl}carbonyl)cyclohexanecarboxylic acid] were, in that order, 110 nM and 5900 nM.
The matching figures for `COc1ccc(F)cc1-c1ncnc2[nH]c(C3=CCN(S(C)(=O)=O)CC3)cc12` [Example 5, 4-(5-fluoro-2-methoxyphenyl)-6-[1-(methylsulfonyl)-1,2,3,6-tetrahydropyridin-4-yl]-7H-pyrrolo[2,3-d]pyrimidine]: 20 nM and 380 nM.
The like results for `COc1ccc(F)cc1-c1ncnc2[nH]c(C3=CCN(S(=O)(=O)C4CC4)CC3)cc12` [Example 8, 6-[1-(cyclopropylsulfonyl)-1,2,3,6-tetrahydropyridin-4-yl]-4-(5-fluoro-2-methoxyphenyl)-7H-pyrrolo[2,3-d]pyrimidine] were, in that order, 19 nM and 690 nM.
As for `COc1ccc(F)cc1-c1ncnc2[nH]c(C3=CCN(Cc4ccccc4)CC3)cc12` [Example 21, 6-(1-benzyl-1,2,3,6-tetrahydropyridin-4-yl)-4-(5-fluoro-2-methoxyphenyl)-7H-pyrrolo[2,3-d]pyrimidine], on CDK9/Cyclin T1, the midpoint of inhibition, the IC50, lay at 35 nM. The EC50 in the test with H929 cells came to 440 nM.
The matching figures for `COc1ccc(F)cc1-c1ncnc2[nH]c(C3=CCC(N[C@@H](CC(C)C)C(=O)O)CC3)cc12` (stereo partly drawn) [Example 85, N-{4-[4-(5-fluoro-2-methoxyphenyl)-7H-pyrrolo[2,3-d]pyrimidin-6-yl]cyclohex-3-en-1-yl}-L-leucine]: 170 nM and 1700 nM.
The like results for `COc1ccc(F)cc1-c1ncnc2[nH]c(C3=CCN(Cc4cccnc4)CC3)cc12` [Example 34, 4-(5-fluoro-2-methoxyphenyl)-6-[1-(pyridin-3-ylmethyl)-1,2,3,6-tetrahydropyridin-4-yl]-7H-pyrrolo[2,3-d]pyrimidine] were, in that order, 170 nM and 630 nM.
The like results for `CCOC(=O)NS(=O)(=O)N1CC=C(c2cc3c(-c4cc(F)ccc4OC)ncnc3[nH]2)CC1` [Example 82, ethyl ({4-[4-(5-fluoro-2-methoxyphenyl)-7H-pyrrolo[2,3-d]pyrimidin-6-yl]-3,6-dihydropyridin-1(2H)-yl}sulfonyl)carbamate] were, in that order, 71 nM and 780 nM.
On to `COc1ccc(F)cc1-c1ncnc2[nH]c(C3=CCN(CC4CCCO4)CC3)cc12` (stereo not drawn) [Example 24, 4-(5-fluoro-2-methoxyphenyl)-6-[1-(tetrahydrofuran-2-ylmethyl)-1,2,3,6-tetrahydropyridin-4-yl]-7H-pyrrolo[2,3-d]pyrimidine], for which 100 nM corresponded to half-maximal inhibition at CDK9/Cyclin T1 (IC50). In the test on H929 cells, this compound had an EC50 of 250 nM.
In the case of `COc1ccc(F)cc1-c1ncnc2[nH]c(C3=CCN(C)CC3)cc12` [Example 4, 4-(5-fluoro-2-methoxyphenyl)-6-(1-methyl-1,2,3,6-tetrahydropyridin-4-yl)-7H-pyrrolo[2,3-d]pyrimidine], the half-maximal inhibitory concentration (IC50) at CDK9/Cyclin T1 worked out at 23 nM. Further, the EC50 in the test on H929 cells stood at 350 nM.
The matching figures for `COc1ccc(F)cc1-c1ncnc2[nH]c(C3=CCN(Cc4ccnc(C(F)(F)F)c4)CC3)cc12` [Example 28, 4-(5-fluoro-2-methoxyphenyl)-6-(1-{[2-(trifluoromethyl)pyridin-4-yl]methyl}-1,2,3,6-tetrahydropyridin-4-yl)-7H-pyrrolo[2,3-d]pyrimidine]: 220 nM and 1000 nM.
The like results for `COc1ccc(F)cc1-c1ncnc2[nH]c(C3=CCN(Cc4cccc(F)c4)CC3)cc12` [Example 35, 6-[1-(3-fluorobenzyl)-1,2,3,6-tetrahydropyridin-4-yl]-4-(5-fluoro-2-methoxyphenyl)-7H-pyrrolo[2,3-d]pyrimidine] were, in that order, 150 nM and 930 nM.
The matching figures for `COc1ccc(F)cc1-c1ncnc2[nH]c(C3=CCOCC3)cc12` [Example 65, 6-(3,6-dihydro-2H-pyran-4-yl)-4-(5-fluoro-2-methoxyphenyl)-7H-pyrrolo[2,3-d]pyrimidine]: 69 nM and 1000 nM.
On to `COc1ccc(F)cc1-c1ncnc2[nH]c(C3=CCN(S(=O)(=O)C(C)C)CC3)cc12` [Example 10, 4-(5-fluoro-2-methoxyphenyl)-6-[1-(propan-2-ylsulfonyl)-1,2,3,6-tetrahydropyridin-4-yl]-7H-pyrrolo[2,3-d]pyrimidine], for which the IC50 on CDK9/Cyclin T1 worked out at 160 nM. For the same compound, the response in the test with H929 cells was half-maximal at 550 nM (EC50).
Turning to `COc1ccc(F)cc1-c1ncnc2[nH]c(C3=CCN(Cc4ccccn4)CC3)cc12` [Example 26, 4-(5-fluoro-2-methoxyphenyl)-6-[1-(pyridin-2-ylmethyl)-1,2,3,6-tetrahydropyridin-4-yl]-7H-pyrrolo[2,3-d]pyrimidine], half-maximal inhibition at CDK9/Cyclin T1 (IC50) was put at 190 nM. The EC50 in the test on H929 cells came out at 610 nM.

The values are drawn from patent US9346813B2, “Substituted pyrrolo[2,3-d]pyrimindines as CDK9 kinase inhibitors” (AbbVie Inc., priority 2014, dated 2016).
